Measured values: patent US4468511A, “C-20- And C-23-Modified macrolide derivatives” (Eli Lilly and Company, priority 1983, dated 1984)
In brackets after ≈: the same amount, converted by molar mass. Read-outs that look alike come from different tables or passages of the source.

What was measured:
Format in all cases: cell-based
Escherichia coli EC14 = assay: MIC, standard agar-dilution assay
Procedure: (§1) Certain of the derivatives are active against some gram-negative bacteria, such as Pasteurella species. The MIC's in Table II were determined by standard agar-dilution assays. The MIC's in Table III were obtained using a conventional broth-dilution microtiter test.

Escherichia coli TEM = assay: MIC, standard agar-dilution assay; conditions: agar-dilution; Escherichia coli TEM; read-out: MIC
Procedure: as §1

[1] = test system: Klebsiella pneumoniae KAE; assay: MIC, standard agar-dilution assay; conditions: agar-dilution; Klebsiella pneumoniae KAE; read-out: MIC
Procedure: as §1

[2] = test system: Klebsiella pneumoniae X26; assay: MIC, standard agar-dilution assay
Procedure: as §1

[3] = test system: Staphylococcus aureus V41; assay: MIC, standard agar-dilution assay; conditions: Staphylococcus aureus, V41
Procedure: as §1

[4] = test system: Staphylococcus aureus X1.1; assay: MIC, standard agar-dilution assay; conditions: Staphylococcus aureus, X1.1
Procedure: as §1

[5] = test system: Streptococcus Group D X66; assay: MIC, standard agar-dilution assay
Procedure: as §1

[6] = test system: Streptococcus pneumoniae Park I; assay: MIC, standard agar-dilution assay; conditions: Streptococcus pneumoniae
Procedure: as §1

[7] = test system: Streptococcus pyogenes 9960; assay: MIC, standard agar-dilution assay
Procedure: as §1

[8] = test system: Streptococcus pyogenes C203; assay: MIC, standard agar-dilution assay
Procedure: as §1

[9] = test system: Haemophilus influenzae 76; assay: MIC, standard agar-dilution assay
Procedure: (§2) The MIC's in Table II were determined by standard agar-dilution assays. The MIC's in Table III were obtained using a conventional broth-dilution microtiter test.

[10] = test system: Haemophilus influenzae C.L.; assay: MIC, standard agar-dilution assay
Procedure: as §2

[11] = test system: Staphylococcus aureus X400; assay: MIC, standard agar-dilution assay
Procedure: as §2

[12] = test system: Staphylococcus aureus S13E; assay: microbe, parasite or virus in culture
Procedure: as §2

[13] = test system: Staphylococcus epidermidis EPI1; assay: microbe, parasite or virus in culture; conditions: Staphylococcus epidermidis, EPI1
Procedure: as §2

[14] = test system: Mycoplasma gallisepticum 34159; assay: MIC, conventional broth-dilution microtiter test; conditions: Mycoplasmoides gallisepticum; broth-dilution microtiter; Mycoplasma gallisepticum 34159, Resistant strain; read-out: MIC
Procedure: as §1

[15] = test system: Mycoplasma gallisepticum 41313; assay: MIC, conventional broth-dilution microtiter test; conditions: Mycoplasmoides gallisepticum; broth-dilution microtiter; Mycoplasma gallisepticum 41313, Resistant strain; read-out: MIC
Procedure: as §1

Mycoplasma gallisepticum = assay: MIC, conventional broth-dilution microtiter test; conditions: Mycoplasmoides gallisepticum
Procedure: as §1

Mycoplasma hyorhinis = assay: MIC, conventional broth-dilution microtiter test; conditions: Mycoplasma
Procedure: as §1

[16] = test system: Pasteurella hemolytica 22C; assay: MIC, conventional broth-dilution microtiter test
Procedure: as §1

[17] = test system: Pasteurella hemolytica 23C; assay: MIC, conventional broth-dilution microtiter test
Procedure: as §1

[18] = test system: Pasteurella hemolytica 41D; assay: MIC, conventional broth-dilution microtiter test
Procedure: as §1

[19] = test system: Pasteurella multocida 17E; assay: MIC, conventional broth-dilution microtiter test; conditions: broth-dilution microtiter; Pasteurella multocida 17E, Bovine isolate; read-out: MIC
Procedure: as §1

[20] = test system: Pasteurella multocida 22A; assay: MIC, conventional broth-dilution microtiter test; conditions: broth-dilution microtiter; Pasteurella multocida 22A; read-out: MIC
Procedure: as §1

[21] = test system: Pasteurella multocida 40G; assay: MIC, conventional broth-dilution microtiter test; conditions: broth-dilution microtiter; Pasteurella multocida 40G; read-out: MIC
Procedure: as §1

[22] = test system: Pasteurella multocida 60A; assay: MIC, conventional broth-dilution microtiter test; conditions: broth-dilution microtiter; Pasteurella multocida 60A, Avian isolate; read-out: MIC
Procedure: as §1

[23] = test system: Pasteurella multocida 68C; assay: MIC, conventional broth-dilution microtiter test; conditions: broth-dilution microtiter; Pasteurella multocida 68C; read-out: MIC
Procedure: as §1

Staphylococcus aureus = assay: MIC, conventional broth-dilution microtiter test
Procedure: as §1

Streptococcus sp. 80 = assay: MIC, conventional broth-dilution microtiter test; conditions: broth-dilution microtiter; Streptococcus sp. 80; read-out: MIC
Procedure: as §1

[24] = test system: Staphylococcus epidermidis EPI2; assay: MIC, standard agar-dilution assay; conditions: Staphylococcus epidermidis, EPI2
Procedure: as §2

[25] = agar-dilution, Escherichia coli EC14, read-out: MIC
[26] = agar-dilution, Klebsiella pneumoniae X26, read-out: MIC
[27] = agar-dilution, Streptococcus Group D X66, read-out: MIC
[28] = agar-dilution, Streptococcus 9960, read-out: MIC
[29] = agar-dilution, Streptococcus pyogenes C203, read-out: MIC
[30] = agar-dilution, Haemophilus influenzae 76, Ampicillin-resistant strain, read-out: MIC
[31] = agar-dilution, Haemophilus influenzae C.L., Ampicillin-sensitive strain, read-out: MIC
[32] = agar-dilution, Staphylococcus aureus X400, Methicillin-resistant strain, read-out: MIC

Work on `CCC1OC(=O)CC(O)C(C)C(OC2OC(C)C(O)C(N(C)C)C2O)C(CCN2C(=O)c3ccccc3C2=O)CC(C)C(=O)C=CC(C)=CC1CN1C(=O)c2ccccc2C1=O` (stereo not shown) [Compound 31, 20,23-Di-N-Phthalimido-20,23-dideoxy-20-dihydro-OMT] yielded an MIC (Escherichia coli EC14; [25]) of over 128 µg/mL, an MIC (Escherichia coli TEM) of over 128 µg/mL and an MIC [1] of over 128 µg/mL. The MIC [2, 26] was over 128 µg/mL, the MIC [3] was 4 µg/mL (≈ 4.66 µM) and the MIC [4] was 4 µg/mL (≈ 4.66 µM). For the same compound, the MIC [5, 27] was 8 µg/mL (≈ 9.32 µM), the MIC [6] was 2 µg/mL (≈ 2.33 µM) and the MIC [7, 28] was 16 µg/mL (≈ 18.6 µM). It also gave an MIC [8, 29] of 16 µg/mL (≈ 18.6 µM), an MIC [9, 30] of over 128 µg/mL and an MIC [10, 31] of over 128 µg/mL. The MIC [11, 32] was 16 µg/mL (≈ 18.6 µM), the MIC [12] was 4 µg/mL (≈ 4.66 µM) and the MIC [13] was 4 µg/mL (≈ 4.66 µM). The MIC [14] was 25 µg/mL (≈ 29.1 µM), the MIC [15] was 25 µg/mL (≈ 29.1 µM) and the MIC (Mycoplasma gallisepticum) was 12.5 µg/mL (≈ 14.6 µM). For the same compound, the MIC (Mycoplasma hyorhinis) was 50 µg/mL (≈ 58.3 µM), the MIC ([16]; broth-dilution microtiter, Pasteurella hemolytica 22C, read-out: MIC) was over 50 µg/mL and the MIC ([17]; broth-dilution microtiter, Pasteurella hemolytica 23C, read-out: MIC) was over 50 µg/mL. The MIC ([18]; broth-dilution microtiter, Pasteurella hemolytica 41D, read-out: MIC) was over 50 µg/mL, the MIC [19] was over 50 µg/mL and the MIC [20] was over 50 µg/mL. For the same compound, the MIC [21] was over 50 µg/mL, the MIC [22] was over 50 µg/mL and the MIC [23] was over 50 µg/mL. For the same compound, the MIC (Staphylococcus aureus) was 12.5 µg/mL (≈ 14.6 µM) and the MIC (Streptococcus sp. 80) was 12.5 µg/mL (≈ 14.6 µM).

Work on `CCC1CC(C)C(=O)C=CC(C)=CC(COC(C)=O)C(CC)OC(=O)CC(O)C(C)C1OC1OC(C)C(OC(C)=O)C(N(C)C)C1OC(C)=O` (stereo not shown) [Compound 40, 2',4',23-Tri-O-acetyl-20-deoxy-20-dihydro-OMT] yielded an MIC (Escherichia coli EC14; [25]) of over 128 µg/mL, an MIC (Escherichia coli TEM) of over 128 µg/mL and an MIC [1] of over 128 µg/mL. It also gave an MIC [2, 26] of 16 µg/mL (≈ 22.5 µM), an MIC [3] of 4 µg/mL (≈ 5.63 µM) and an MIC [4] of 4 µg/mL (≈ 5.63 µM). It also gave an MIC [5, 27] of 8 µg/mL (≈ 11.3 µM), an MIC [6] of 4 µg/mL (≈ 5.63 µM) and an MIC [7, 28] of 8 µg/mL (≈ 11.3 µM). For the same compound, the MIC [8, 29] was 16 µg/mL (≈ 22.5 µM), the MIC [11, 32] was 16 µg/mL (≈ 22.5 µM) and the MIC [24] was 4 µg/mL (≈ 5.63 µM). The MIC [12] was 4 µg/mL (≈ 5.63 µM), the MIC [13] was 4 µg/mL (≈ 5.63 µM) and the MIC [14] was over 50 µg/mL. For the same compound, the MIC [15] was over 50 µg/mL, the MIC (Mycoplasma gallisepticum) was 6.25 µg/mL (≈ 8.8 µM) and the MIC (Mycoplasma hyorhinis) was 50 µg/mL (≈ 70.4 µM). The MIC ([16]; Pasteurella, 22C) was 50 µg/mL (≈ 70.4 µM), the MIC ([17]; Pasteurella, 23C) was 50 µg/mL (≈ 70.4 µM) and the MIC ([18]; Pasteurella, 41D) was 50 µg/mL (≈ 70.4 µM). For the same compound, the MIC [19] was 25 µg/mL (≈ 35.2 µM), the MIC [20] was 25 µg/mL (≈ 35.2 µM) and the MIC [21] was 25 µg/mL (≈ 35.2 µM). For the same compound, the MIC [22] was 12.5 µg/mL (≈ 17.6 µM), the MIC [23] was 12.5 µg/mL (≈ 17.6 µM) and the MIC (Staphylococcus aureus) was 6.25 µg/mL (≈ 8.8 µM). For the same compound, the MIC (Streptococcus sp. 80) was 12.5 µg/mL (≈ 17.6 µM).

`CCC1OC(=O)CC(O)C(C)C(OC2OC(C)C(O)C(N(C)C)C2O)C(CCO)CC(C)C(=O)C=CC(C)=CC1COC(=O)CCc1ccccc1` (stereo not shown) [Compound 52, 20-Dihydro-23-O-phenylpropionyl-OMT] showed an MIC (Escherichia coli EC14; Escherichia coli, EC14) of 64 µg/mL (≈ 87.4 µM), an MIC (Escherichia coli TEM) of 8 µg/mL (≈ 10.9 µM) and an MIC [1] of over 128 µg/mL. It also gave an MIC ([2]; Klebsiella pneumoniae, X26) of 4 µg/mL (≈ 5.47 µM), an MIC [3] of 0.5 µg/mL (≈ 0.683 µM) and an MIC [4] of 0.5 µg/mL (≈ 0.683 µM). The MIC [5] was 1 µg/mL (≈ 1.37 µM), the MIC [6] was 0.25 µg/mL (≈ 0.342 µM) and the MIC [7, 28] was 2 µg/mL (≈ 2.73 µM). It also gave an MIC ([8]; Streptococcus pyogenes, C203) of 0.25 µg/mL (≈ 0.342 µM), an MIC [9, 30] of 8 µg/mL (≈ 10.9 µM) and an MIC [10, 31] of 8 µg/mL (≈ 10.9 µM). The MIC ([11]; Staphylococcus aureus, X400) was 1 µg/mL (≈ 1.37 µM), the MIC [24] was 0.5 µg/mL (≈ 0.683 µM) and the MIC [12] was 0.5 µg/mL (≈ 0.683 µM). The MIC [13] was 0.5 µg/mL (≈ 0.683 µM).

`CCC1OC(=O)CC(O)C(C)C(OC2OC(C)C(O)C(N(C)C)C2O)C(CCN(c2ccccc2)c2ccccc2)CC(C)C(=O)C=CC(C)=CC1CO` (stereo not shown) [Compound 56, 20-Diphenylamino-20-deoxy-20-dihydro-OMT] was tested, and the MIC (Escherichia coli EC14; [25]) was over 128 µg/mL, the MIC (Escherichia coli TEM) was over 128 µg/mL and the MIC [1] was over 128 µg/mL. For the same compound, the MIC [3] was 2 µg/mL (≈ 2.66 µM), the MIC [4] was 4 µg/mL (≈ 5.33 µM) and the MIC [5] was 4 µg/mL (≈ 5.33 µM). It also gave an MIC [6] of 1 µg/mL (≈ 1.33 µM), an MIC [7]; 9960 of 8 µg/mL (≈ 10.7 µM) and an MIC ([8]; Streptococcus pyogenes, C203) of 2 µg/mL (≈ 2.66 µM). For the same compound, the MIC ([9]; Haemophilus influenzae, 76) was 16 µg/mL (≈ 21.3 µM), the MIC ([10]; Haemophilus influenzae) was 32 µg/mL (≈ 42.6 µM) and the MIC ([11]; Staphylococcus aureus, X400) was 4 µg/mL (≈ 5.33 µM). It also gave an MIC [24] of 1 µg/mL (≈ 1.33 µM), an MIC [12] of 2 µg/mL (≈ 2.66 µM) and an MIC [13] of 2 µg/mL (≈ 2.66 µM).
